Experimental data taken from patent US6730691B1, “Uses of alpha adrenergic blocking agents” (priority 2000, dated 2004).
Structures can show the parent of a compound that is named as a salt.

Assays:
[1] = test system: patients who had undergone radial keratotomy and who each experienced glare and halos; assay: Topical thymoxamine ophthalmic solution in patients after radial keratotomy; format: in vivo, human; conditions: two radial keratotomy patients; similarly treated with 0.5% by weight solution
[2] = test system: subjects who had undergone surgical implantation of a refractive intraocular lens, experiencing photophobia, glare, secondary images and haloing; assay: Topical thymoxamine ophthalmic solution in subjects after implantation of a refractive intraocular lens; format: in vivo, human; conditions: three subjects
Procedure: A suitable ophthalmic solution was prepared containing about 0.5% by weight thymoxamine by the Moorfields Eye Hospital, London, England having the following composition: Applicant believes that the aqueous ophthalmic solution was prepared by dissolving the sodium acetate, boric acid and phenylmercuric nitrate in most of the purified water. Dissolution was promoted by heating the solution. Upon cooling the solution to room temperature, the thymoxamine hydrochloride was added and was dissolved without further heating. The remainder of the purified water was then added to reach a final volume of 100 ml. Sterilization of the solution was achieved by filtering it through a sterilizing filter. Three subjects, each of whom had undergone surgical implantation of a refractive intraocular lens, were selected for study. Each of the three subjects complained of experiencing photophobia, glare, secondary images and haloing, especially at night. Each of the three subjects received an approximately one drop dose twice daily of an ophthalmic solution containing 0.5% by weight of thymoxamine. […] Each of the subjects continued application of approximately a one drop dose on an as needed basis for a period of one month.

CC(=O)Oc1cc(C(C)C)c(OCCN(C)C)cc1C [thymoxamine, thymoxamine hydrochloride]
glare and halos after treatment [1]: comparable results
induced myopia or headaches ([2]; 0.5% by weight solution, one day period): without experiencing induced myopia or headaches
irritation from the topical application to the eye ([2]; after administration of a dosage of 0.5% by weight solution): mild irritation
undesirable visual anomalies once treatment was terminated ([2]; after termination of treatment): returned to each of the three subjects
undesirable visual anomaly during the usage period ([2]; approximately one drop as needed for one month): None of the subjects have experienced the previously complained of undesirable visual anomaly
previously complained of undesirable visual anomaly (photophobia, glare, secondary images, haloing) ([2]; approximately one drop twice daily of 0.5% by weight solution, one day period): elimination of the previously complained of undesirable visual anomaly
